# Measurements as given in publication PMC7395068, “The evolution of strategies to minimise the risk of human drug-induced liver injury (DILI) in drug discovery and development” (Archives of Toxicology, 2020).
# Where two headings read alike, the source gives them in different places.
# Tests used:
# HepG2 = system: HepG2; design: method as in Albrecht 2019; conditions: In vitro Assay; ref Albrecht 2019; cited from earlier work
# [1] = cited from earlier work
# [2] = system: primary human hepatocytes, NIH3T3 fibroblasts, BSEP, CYP3A4; conditions: cited from earlier work
# human hepatocytes = conditions: cited from earlier work; for Structural based (HCI): In vitro Assay, ref Xu 2008
# PHH [3] = conditions: In vitro Assay; ref Albrecht 2019; cited from earlier work
# [4] = system: THLE-Null and THLE-3A4 cells; conditions: In vitro Assay; ref Gustafsson 2014; cited from earlier work
# rBsep = conditions: In vitro Assay; ref Dawson 2012; cited from earlier work
# [5] = system: THLE or HepG2 cells, isolated mitochondria, BSEP; conditions: cited from earlier work
# [6] = cited from earlier work; remark: listed apart in the source
# PHH spheroids = conditions: cited from earlier work; for hLiMTs ATP <20 x Cmax: In vitro Assay, ref Vorrink 2018
# HepG2 cells [7] = conditions: cited from earlier work
# PHH [8] = conditions: cited from earlier work
# hLiMTs [9] = conditions: cited from earlier work
# [10] = system: HepG2 C3A spheroid, BSEP, Glu/Gal in HepG2 cells, bioactivation; conditions: cited from earlier work
# [11] = system: isolated mouse liver mitochondria; conditions: In vitro Assay; ref Porceddu 2012; cited from earlier work
# [12] = Plasma free fraction (fu) and unbound Cmax (Cmax,u); format: in vitro ADME, human; conditions: unbound plasma Cmax
# Method: The prediction of DILI severity was evaluated further using the 3D combined HCI assays using plasma-free fraction. The majority of fu values were obtained from literature, when unavailable in-house prediction was utilised. Unbound plasma Cmax concentrations (Cmax,u) were derived by multiplying total plasma Cmax with the corresponding free fraction (fu) for each compound.
# hLiMTs [13] = system: hLiMTs
# HepaRG spheroids [14] = system: HepaRG spheroids
# HepG2 cells [15] = conditions: cited from earlier work; remark: listed apart in the source
# [16] = read-out: Human plasma Cmax; total plasma Cmax.tot, median of 9 literature references; cited from earlier work
# [17] = plasma free fraction; cited from earlier work
# [18] = system: HepG2 cells, primary human hepatocytes; conditions: In vitro Assay; ref Garside 2014; cited from earlier work
# [19] = ref Chen 2011; cited from earlier work
# hLiMTs [20] = experiment: Combined HCI (HCS) and cellular ATP 3D assay in hLiMTs
# HepaRG spheroids [21] = experiment: Combined HCI (HCS) and cellular ATP 3D assay in HepaRG spheroids; conditions: HepaRG; for AC50 / minimal effective concentration: Homo sapiens
# [22] = In vitro Assay, ref Schadt 2015
# [23] = In vitro Assay, ref Persson 2013
# [24] = In vitro Assay, ref Proctor 2017
structure (smiles),measurement,setting,value
C[C@H]1COc2c(N3CCN(C)CC3)c(F)cc3c(=O)c(C(=O)O)cn1c23 [levofloxacin],Cytotoxicity HepG2 48 hrs,HepG2,+VE
same,"DILI +VE (5-8), DILI -VE (-4)",[1]; in vivo,+VE
same,DILI severity category,[1]; in vivo,vMost-DILI-Concern
same,Cellular toxicity (3T3 cells),[2],-VE
same,Combined Assay,[2],-VE
same,GSH adduct HML,[2],-VE
same,Hepatocyte cellular toxicity,[2],-VE
same,MitoTox 3T3,[2],-VE
same,TDI CYP3A4,[2],-VE
same,hBSEP inhibition,[2],-VE
same,Structural based (HCI),human hepatocytes,-VE
same,Cytotoxicity PHH 48 hrs,PHH [3],+VE
same,THLE-Null,[4],-VE
same,Inhibition of rBsep cutoff<1& cmax u>.2,rBsep,-VE
same,Inhibition of rBsep cutoff<3,rBsep,-VE
OCCOCCN1CCN(C(c2ccccc2)c2ccc(Cl)cc2)CC1 (stereo not shown) [hydroxyzine],Cytotoxicity HepG2 48 hrs,HepG2,-VE
same,"DILI +VE (5-8), DILI -VE (-4)",[1]; ref Chen 2016,-VE
same,DILI severity category,[1]; ref Chen 2016,vNo-DILI-Concern
same,Partition Hybrid HRM Score,"[5]; In vitro Assay, ref Aleo 2019",+VE
same,Ro2 Hybrid HRM Score,"[5]; In vitro Assay, ref Aleo 2019",+VE
same,In vivo DILI,[6]; […],-VE
same,In vivo DILI,[6]; ref Albrecht 2019,-VE
same,In vivo DILI,[6]; ref Aleo 2019,-VE
same,Cytotoxicity PHH 48 hrs,PHH [3],-VE
"CC(C)NCC(O)COc1cccc2ccccc12 (stereo not shown) [propranolol, reference compound]",Cytotoxicity HepG2 48 hrs,HepG2,-VE
same,Ro2 Hybrid HRM Score,"[5]; In vitro Assay, ref Aleo 2019",-VE
same,Partition Hybrid HRM Score,[5],+VE
same,response of PHH spheroids at 5 × Cmax.tot,"PHH spheroids; ATP, 14 days, not positive at higher concentrations, ref Vorrink et al. 2018",positive
same,hLiMTs ATP <20 x Cmax,PHH spheroids,-VE
same,Cytotoxicity PHH 48 hrs,PHH [3],-VE
same,Inhibition of rBsep cutoff<1& cmax u>.2,rBsep,-VE
same,Inhibition of rBsep cutoff<3,rBsep,-VE
CC(CN1c2ccccc2Sc2ccccc21)N(C)C (stereo not shown) [promethazine],Cytotoxicity HepG2 48 hrs,HepG2,-VE
same,"DILI +VE (5-8), DILI -VE (-4)",[1]; ref Chen 2016,+VE
same,DILI severity category,[1]; ref Chen 2016,vLess-DILI-Concern
same,Cellular toxicity (3T3 cells),[2]; [22],+VE
same,Combined Assay,[2]; [22],-VE
same,GSH adduct HML,[2]; [22],+VE
same,Hepatocyte cellular toxicity,[2]; [22],-VE
same,MitoTox 3T3,[2]; [22],-VE
same,TDI CYP3A4,[2]; [22],-VE
same,hBSEP inhibition,[2]; [22],-VE
same,Structural based (HCI),human hepatocytes,-VE
same,hLiMTs ATP <20 x Cmax,PHH spheroids,-VE
same,In vivo DILI,[6]; ref Albrecht 2019,-VE
same,In vivo DILI,[6]; ref Schadt 2015,-VE
same,In vivo DILI,[6]; ref Vorrink 2018,-VE
same,In vivo DILI,[6]; ref Xu 2008,-VE
same,Cytotoxicity PHH 48 hrs,PHH [3],-VE
CS(=O)(=O)Nc1ccc([N+](=O)[O-])cc1Oc1ccccc1 [nimesulide],Cytotoxicity HepG2 48 hrs,HepG2,+VE
same,"DILI +VE (5-8), DILI -VE (-4)",[1]; in vivo,+VE
same,DILI severity category,[1]; in vivo,vMost-DILI-Concern
same,Structural based (HCI),HepG2 cells [7],+VE
same,Ro2 Hybrid HRM Score,[5],+VE
same,PHH ATP <100uM,PHH [8],+VE (key: +VE: IC50 threshold of 100 µM)
same,hLiMTs ATP <100uM,hLiMTs [9],+VE (key: +VE: IC50 threshold of 100 µM)
same,hLiMTs ATP <20 x Cmax,PHH spheroids,+VE (IC20 < 20 × Cmax.tot cut-off)
same,Bayesian Machine Learning,[10],+VE
same,In vivo DILI,[6]; in vivo,+VE
same,Cytotoxicity PHH 48 hrs,PHH [3],+VE
same,in vitro data EC2<=1x Cmax,[11],+VE
O=C1CN(/N=C/c2ccc(-c3ccc([N+](=O)[O-])cc3)o2)C(O)=N1 [dantrolene],"Human plasma Cmax,u",[12],0.552 µM
same,DILI prediction hLiMTs (HCS-MEC),hLiMTs [13],+VE (MEC < 25 × Cmax.tot cut-off)
same,DILI prediction HepaRG spheroids (HCS-MEC),HepaRG spheroids [14],+VE (MEC < 25 × Cmax.tot cut-off)
same,DILI severity category (Chen et al. [2016]),"[1]; LTKB DILIrank category, ref Chen et al. 2016",Most
same,DILI severity category (Chen 2016),"[1]; human DILI classification, LTKB DILIrank, ref Chen et al. 2016",Most
same,DILI severity category,"[1]; human DILI severity, ref Chen et al.",Most
same,"DILI +VE (5-8), DILI -VE (-4)",[1]; ref Chen 2016,+VE
same,DILI severity category,[1]; ref Chen 2016,vMost-DILI-Concern
same,Structural based (HCI),"HepG2 cells [7]; In vitro Assay, ref O'Brien 2006",+VE
same,"DILI in vitro assay prediction, O'Brien (2006)","HepG2 cells [7]; Structural based (HCI), HepG2, ref O'Brien et al. 2006",+VE (lowest HCI endpoint IC50 (or in the absence of dose–response < 100 µM) < 30 × total human plasma exposure levels (Cmax.tot))
same,Cluser analysis,HepG2 cells [15]; [23],-VE
same,Structural based (HCI),HepG2 cells [15]; [23],+VE
same,"DILI in vitro assay prediction, Persson (2013)","HepG2 cells [15]; Structural based (HCI), HepG2, ref Persson et al. 2013",-VE
same,Structural based (HCI),human hepatocytes,+VE
same,"DILI in vitro assay prediction, Xu (2008)","human hepatocytes; Structural based (HCI), human hepatocytes, ref Xu et al. 2008",+VE
same,"PHH/100uM, Proctor (2017)","PHH [8]; 2D PHH, ATP, IC50 threshold 100 µM, ref Proctor et al. 2017",-VE
same,PHH ATP <100uM,PHH [8]; [24],-VE
same,hLiMTs ATP <100uM,hLiMTs [9]; [24],-VE
same,"hLiMTs/100uM, Proctor (2017)","hLiMTs [9]; hLiMTs, ATP, IC50 threshold 100 µM, ref Proctor et al. 2017",-VE
same,hLiMTs ATP <20 x Cmax,PHH spheroids,+VE (IC20 < 20 × Cmax.tot cut-off)
same,"DILI in vitro assay prediction, Vorrink (2018)","PHH spheroids; PHH spheroids, ATP, 14 days, IC20 < 20 × Cmax.tot, ref Vorrink et al. 2018",+VE (IC20 < 20 × Cmax.tot cut-off)
same,Cmax,[16],3.95 µM
same,fu,[17],0.140
same,Assigned DILI category,"[6]; Chen et al. 2016 or literature alignment, ref Chen et al. 2016",3
same,In vivo DILI,[6]; […],+VE
same,In vivo DILI,[6]; ref Garside 2014,+VE
same,In vivo DILI,[6]; ref O'Brien 2006,+VE
same,In vivo DILI,[6]; ref Persson 2013,+VE
same,In vivo DILI,[6]; ref Proctor 2017,+VE
same,In vivo DILI,[6]; ref Vorrink 2018,+VE
same,In vivo DILI,[6]; ref Williams 2019,+VE
same,In vivo DILI,[6]; ref Xu 2008,+VE
same,Cluster 1-6 +VE Assay,[18],-VE
same,DILI Score (FDA) (1-8),[19],8
same,"DILI prediction hLiMTs, HCI alone","hLiMTs [20]; HCS endpoints only, 25 × Cmax.tot cut-off",detection
same,AC50,"hLiMTs [20]; Homo sapiens, read-out: HCS endpoint AC50",51 µM
same,minimal effective concentration,"hLiMTs [20]; Homo sapiens, read-out: HCS endpoint MEC",10.5 µM
same,"DILI prediction hLiMTs, ATP alone","hLiMTs [20]; cellular ATP only, 25 × Cmax.tot cut-off",unpredicted
same,hLiMTs <25x Avg Cmax ATP,"hLiMTs [20]; hLiMTs, ATP endpoint, cut-off <25x Avg Cmax",-ve
same,hLiMTs <100x Avg Cmaxu ATP,"hLiMTs [20]; hLiMTs, ATP endpoint, cut-off <100x Avg Cmaxu",-ve
same,hLiMTs <25x Avg Cmax HCS,"hLiMTs [20]; hLiMTs, HCS endpoints, cut-off <25x Avg Cmax",+ve
same,hLiMTs <100x Avg Cmaxu HCS,"hLiMTs [20]; hLiMTs, HCS endpoints, cut-off <100x Avg Cmaxu",+ve (<100x Avg Cmaxu)
same,hLiMTs <25x Avg Cmax All,"hLiMTs [20]; hLiMTs, all endpoints (ATP and HCS), cut-off <25x Avg Cmax",+ve
same,hLiMTs Cmax max All,"hLiMTs [20]; hLiMTs, all endpoints, Cmax max used",+ve
same,hLiMTs Cmax min All,"hLiMTs [20]; hLiMTs, all endpoints, Cmax min used",-ve
same,hLiMTs <10 uM All,"hLiMTs [20]; hLiMTs, all endpoints, cut-off <10 uM",-ve
same,hLiMTs <100x Avg Cmaxu All,"hLiMTs [20]; hLiMTs, all endpoints, cut-off <100x Avg Cmaxu",+ve (<100x Avg Cmaxu)
same,HepaRG <25x Avg Cmax ATP,"HepaRG spheroids [21]; ATP endpoint, cut-off <25x Avg Cmax",+ve
same,HepaRG <100x Avg Cmaxu ATP,"HepaRG spheroids [21]; ATP endpoint, cut-off <100x Avg Cmaxu",+ve (<100x Avg Cmaxu)
same,HepaRG <25x Avg Cmax HCS,"HepaRG spheroids [21]; HCS endpoints, cut-off <25x Avg Cmax",+ve
same,HepaRG <100x Avg Cmaxu HCS,"HepaRG spheroids [21]; HCS endpoints, cut-off <100x Avg Cmaxu",+ve (<100x Avg Cmaxu)
same,HepaRG <25x Avg Cmax All,"HepaRG spheroids [21]; all endpoints (ATP and HCS), cut-off <25x Avg Cmax",+ve
same,HepaRG Cmax max All,"HepaRG spheroids [21]; all endpoints, Cmax max used",+ve
same,HepaRG Cmax min All,"HepaRG spheroids [21]; all endpoints, Cmax min used",-ve
same,HepaRG <10 uM All,"HepaRG spheroids [21]; all endpoints, cut-off <10 uM",-ve
same,HepaRG <100x Avg Cmaxu All,"HepaRG spheroids [21]; all endpoints, cut-off <100x Avg Cmaxu",+ve (<100x Avg Cmaxu)
same,AC50,HepaRG spheroids [21]; read-out: ATP endpoint AC50,100 µM
same,minimal effective concentration,HepaRG spheroids [21]; read-out: ATP endpoint MEC,53.2 µM
same,AC50,HepaRG spheroids [21]; read-out: HCS endpoint AC50,174 µM
same,minimal effective concentration,HepaRG spheroids [21]; read-out: HCS endpoint MEC,14.5 µM
Clc1cccc(Cl)c1N=C1NCCN1 [clonidine],Cytotoxicity HepG2 48 hrs,HepG2,-VE
same,"DILI +VE (5-8), DILI -VE (-4)",[1]; ref Chen 2016,-VE
same,DILI severity category,[1]; ref Chen 2016,Ambiguous DILI-concern
same,Cellular toxicity (3T3 cells),[2]; [22],-VE
same,Combined Assay,[2]; [22],-VE
same,GSH adduct HML,[2]; [22],-VE
same,Hepatocyte cellular toxicity,[2]; [22],-VE
same,MitoTox 3T3,[2]; [22],-VE
same,TDI CYP3A4,[2]; [22],-VE
same,hBSEP inhibition,[2]; [22],-VE
same,Structural based (HCI),human hepatocytes,-VE
same,Partition Hybrid HRM Score,"[5]; In vitro Assay, ref Aleo 2019",-VE
same,Ro2 Hybrid HRM Score,"[5]; In vitro Assay, ref Aleo 2019",-VE
same,In vivo DILI,[6]; ref Albrecht 2019,-VE
same,In vivo DILI,[6]; ref Schadt 2015,-VE
same,In vivo DILI,[6]; ref Xu 2008,+VE
same,Cytotoxicity PHH 48 hrs,PHH [3],-VE
same,DILI Score (FDA) (1-8),[19],3
